# Key:
# Assay in all cases: minimum inhibition concentration and Kull synergy index of LAE / potassium sorbate
# Assay type in all cases: cell-based
# [1] = test system: Candida albicans (ATCC 10231); conditions: for SI, synergy index: <1 synergism, 1 addition, >1 antagonism
# Method: The invention is now explained by a number of examples. In these examples LAE and sorbate alone and in a number of different combinations have been investigated against a number of bacterial preparations. For the analysis usually an internal method was used. […] The interaction of the two components of the antimicrobial mixture is calculated according to the method described by Kull et al. (Kull […]. and Mayer R. L., Applied Microbiology, 1961; 6:538-541). According to this method the so-called synergy index is calculated according to the following formula: Synergy index […]. […] The same method was used as described for example 1. […] Again the effects of the components alone and in combination have been calculated using the same method as described at Example 1.
# [2] = test system: Bacillus subtilis (CECT 356); conditions: for SI, synergy index: <1 synergism, 1 addition, >1 antagonism
# Method: The invention is now explained by a number of examples. In these examples LAE and sorbate alone and in a number of different combinations have been investigated against a number of bacterial preparations. For the analysis usually an internal method was used. Conditions and medium were Mueller Hinton broth (pH 7.4) or (pH 5.0) for bacteria, Sabouraud broth (pH 5.8) for yeast and Sabouraud medium for moulds. […] The interaction of the two components of the antimicrobial mixture is calculated according to the method described by Kull et al. (Kull […]. and Mayer R. L., Applied Microbiology, 1961; 6:538-541). According to this method the so-called synergy index is calculated according to the following formula: Synergy index […]. […] All indicated symbols indicate a particular concentration leading to a particular end point, in this case the inhibition of growth of Bacillus subtilis, so that the selected end point is in fact the minimal inhibitory concentration (mic).
# [3] = test system: Penicillium camemberti (CECT 2267); conditions: for SI, synergy index: <1 synergism, 1 addition, >1 antagonism
# Method: (§1) The invention is now explained by a number of examples. In these examples LAE and sorbate alone and in a number of different combinations have been investigated against a number of bacterial preparations. For the analysis usually an internal method was used. Conditions and medium were Mueller Hinton broth (pH 7.4) or (pH 5.0) for bacteria, Sabouraud broth (pH 5.8) for yeast and Sabouraud medium for moulds. The interaction of the two components of the antimicrobial mixture is calculated according to the method described by Kull et al. (Kull […]. and Mayer R. L., Applied Microbiology, 1961; 6:538-541). According to this method the so-called synergy index is calculated according to the following formula: Synergy index […]. […] The same method was used as described for example 1. […] Again the effects of the components alone and in combination have been calculated using the same method as described at Example 1.
# [4] = test system: Enterobacter aerogenes (ATCC 13048); conditions: for SI, synergy index: <1 synergism, 1 addition, >1 antagonism
# Method: as §1
# [5] = test system: Escherichia coli (ATCC 8739); conditions: for SI, synergy index: <1 synergism, 1 addition, >1 antagonism
# Method: as §1
# [6] = test system: Cladosporium cladosporioides (ATCC 16022); conditions: for SI, synergy index: <1 synergism, 1 addition, >1 antagonism
# Method: as §1
# [7] = test system: Citrobacter intermedium (CECT 401); conditions: for SI, synergy index: <1 synergism, 1 addition, >1 antagonism
# Method: as §1
# [8] = test system: Bacillus megaterium (CECT 44); conditions: pH 7.4, aqueous solutions
# Method: (§2) The invention is now explained by a number of examples. In these examples LAE and sorbate alone and in a number of different combinations have been investigated against a number of bacterial preparations. For the analysis usually an internal method was used. Conditions and medium were Mueller Hinton broth (pH 7.4) or (pH 5.0) for bacteria, Sabouraud broth (pH 5.8) for yeast and Sabouraud medium for moulds. The interaction of the two components of the antimicrobial mixture is calculated according to the method described by Kull et al. (Kull […]. and Mayer R. L., Applied Microbiology, 1961; 6:538-541). According to this method the so-called synergy index is calculated according to the following formula: Synergy index […]. […] Again the effects of the components alone and in combination have been calculated using the same method as described at Example 1.
# [9] = test system: Staphylococcus aureus (ATCC 6538); conditions: for SI, synergy index: <1 synergism, 1 addition, >1 antagonism
# Method: as §2
# [10] = pH 7.4, propylene glycol solutions
structure (smiles),measurement,setting,value
C/C=C/C=C/C(=O)[O-].[K+] [potassium sorbate],"QS, minimum inhibition concentration of potassium sorbate as single antimicrobial",[1]; pH 5.0,1024
same,"Qlae, minimum inhibition concentration of LAE in the mixture",[1]; pH 5.0,0
same,Qlae/QLAE,[1]; pH 5.0,0
same,"Qs, minimum inhibition concentration of potassium sorbate in the mixture",[1]; pH 5.0,1024.00
same,Qs/QS,[1]; pH 5.0,1.00
same,"SI, synergy index",[1]; pH 5.0,1.00
same,"QS, minimum inhibition concentration of potassium sorbate as single antimicrobial","[1]; pH 7.4, aqueous solutions",1024
same,"Qlae, minimum inhibition concentration of LAE in the mixture","[1]; pH 7.4, aqueous solutions",0
same,Qlae/QLAE,"[1]; pH 7.4, aqueous solutions",0
same,"Qs, minimum inhibition concentration of potassium sorbate in the mixture","[1]; pH 7.4, aqueous solutions",1024.00
same,Qs/QS,"[1]; pH 7.4, aqueous solutions",1.00
same,"SI, synergy index","[1]; pH 7.4, aqueous solutions",1.00
same,"QS, minimum inhibition concentration of potassium sorbate as single antimicrobial",[2]; pH 5.0,1024
same,"Qlae, minimum inhibition concentration of LAE in the mixture",[2]; pH 5.0,0
same,Qlae/QLAE,[2]; pH 5.0,0
same,"Qs, minimum inhibition concentration of potassium sorbate in the mixture",[2]; pH 5.0,1024.00
same,Qs/QS,[2]; pH 5.0,1.00
same,"SI, synergy index",[2]; pH 5.0,1.00
same,"QS, minimum inhibition concentration of potassium sorbate as single antimicrobial",[2]; [10],1024
same,"Qlae, minimum inhibition concentration of LAE in the mixture",[2]; [10],0
same,Qlae/QLAE,[2]; [10],0
same,"Qs, minimum inhibition concentration of potassium sorbate in the mixture",[2]; [10],1024
same,Qs/QS,[2]; [10],1.00
same,"SI, synergy index",[2]; [10],1.00
same,"QS, minimum inhibition concentration of potassium sorbate as single antimicrobial",[3]; pH 5.0,1024
same,"Qlae, minimum inhibition concentration of LAE in the mixture",[3]; pH 5.0,0
same,Qlae/QLAE,[3]; pH 5.0,0
same,"Qs, minimum inhibition concentration of potassium sorbate in the mixture",[3]; pH 5.0,1024.00
same,Qs/QS,[3]; pH 5.0,1.00
same,"SI, synergy index",[3]; pH 5.0,1.00
same,"QS, minimum inhibition concentration of potassium sorbate as single antimicrobial","[3]; pH 7.4, aqueous solutions",2048
same,"Qlae, minimum inhibition concentration of LAE in the mixture","[3]; pH 7.4, aqueous solutions",0
same,Qlae/QLAE,"[3]; pH 7.4, aqueous solutions",0
same,"Qs, minimum inhibition concentration of potassium sorbate in the mixture","[3]; pH 7.4, aqueous solutions",2048
same,Qs/QS,"[3]; pH 7.4, aqueous solutions",1.00
same,"SI, synergy index","[3]; pH 7.4, aqueous solutions",1.00
same,"QS, minimum inhibition concentration of potassium sorbate as single antimicrobial",[4]; pH 5.0,1024
same,"Qlae, minimum inhibition concentration of LAE in the mixture",[4]; pH 5.0,0
same,Qlae/QLAE,[4]; pH 5.0,0
same,"Qs, minimum inhibition concentration of potassium sorbate in the mixture",[4]; pH 5.0,1024.00
same,Qs/QS,[4]; pH 5.0,1.00
same,"SI, synergy index",[4]; pH 5.0,1.00
same,"QS, minimum inhibition concentration of potassium sorbate as single antimicrobial","[4]; pH 7.4, aqueous solutions",1536
same,"Qlae, minimum inhibition concentration of LAE in the mixture","[4]; pH 7.4, aqueous solutions",0
same,"Qs, minimum inhibition concentration of potassium sorbate in the mixture","[4]; pH 7.4, aqueous solutions",1536
same,Qs/QS,"[4]; pH 7.4, aqueous solutions",1.00
same,"SI, synergy index","[4]; pH 7.4, aqueous solutions",1.00
same,"QS, minimum inhibition concentration of potassium sorbate as single antimicrobial",[5]; pH 5.0,1024
same,"Qlae, minimum inhibition concentration of LAE in the mixture",[5]; pH 5.0,0
same,Qlae/QLAE,[5]; pH 5.0,0
same,"Qs, minimum inhibition concentration of potassium sorbate in the mixture",[5]; pH 5.0,1024.00
same,Qs/QS,[5]; pH 5.0,1.00
same,"SI, synergy index",[5]; pH 5.0,1.00
same,"QS, minimum inhibition concentration of potassium sorbate as single antimicrobial","[5]; pH 7.4, aqueous solutions",1536
same,"Qlae, minimum inhibition concentration of LAE in the mixture","[5]; pH 7.4, aqueous solutions",0
same,Qlae/QLAE,"[5]; pH 7.4, aqueous solutions",0
same,"Qs, minimum inhibition concentration of potassium sorbate in the mixture","[5]; pH 7.4, aqueous solutions",1536
same,Qs/QS,"[5]; pH 7.4, aqueous solutions",1.00
same,"SI, synergy index","[5]; pH 7.4, aqueous solutions",1.00
same,"QS, minimum inhibition concentration of potassium sorbate as single antimicrobial",[6]; pH 5.0,1024
same,"Qlae, minimum inhibition concentration of LAE in the mixture",[6]; pH 5.0,0
same,Qlae/QLAE,[6]; pH 5.0,0
same,"Qs, minimum inhibition concentration of potassium sorbate in the mixture",[6]; pH 5.0,1024.00
same,Qs/QS,[6]; pH 5.0,1.00
same,"SI, synergy index",[6]; pH 5.0,1.00
same,"QS, minimum inhibition concentration of potassium sorbate as single antimicrobial","[6]; pH 7.4, aqueous solutions",1024
same,"Qlae, minimum inhibition concentration of LAE in the mixture","[6]; pH 7.4, aqueous solutions",0
same,Qlae/QLAE,"[6]; pH 7.4, aqueous solutions",0.00
same,"Qs, minimum inhibition concentration of potassium sorbate in the mixture","[6]; pH 7.4, aqueous solutions",1024
same,Qs/QS,"[6]; pH 7.4, aqueous solutions",1.00
same,"SI, synergy index","[6]; pH 7.4, aqueous solutions",1.00
same,"QS, minimum inhibition concentration of potassium sorbate as single antimicrobial",[7]; pH 5.0,512
same,"Qlae, minimum inhibition concentration of LAE in the mixture",[7]; pH 5.0,0
same,Qlae/QLAE,[7]; pH 5.0,0
same,"Qs, minimum inhibition concentration of potassium sorbate in the mixture",[7]; pH 5.0,1024.00
same,Qs/QS,[7]; pH 5.0,1.00
same,"SI, synergy index",[7]; pH 5.0,1.00
same,"QS, minimum inhibition concentration of potassium sorbate as single antimicrobial","[7]; pH 7.4, aqueous solutions",1536
same,"Qlae, minimum inhibition concentration of LAE in the mixture","[7]; pH 7.4, aqueous solutions",0
same,Qlae/QLAE,"[7]; pH 7.4, aqueous solutions",0
same,"Qs, minimum inhibition concentration of potassium sorbate in the mixture","[7]; pH 7.4, aqueous solutions",1536
same,Qs/QS,"[7]; pH 7.4, aqueous solutions",1.00
same,"SI, synergy index","[7]; pH 7.4, aqueous solutions",1.00
same,"QS, minimum inhibition concentration of potassium sorbate as single antimicrobial",[8],1024
same,"Qlae, minimum inhibition concentration of LAE in the mixture",[8],0
same,Qlae/QLAE,[8],0
same,"Qs, minimum inhibition concentration of potassium sorbate in the mixture",[8],1024
same,Qs/QS,[8],1.00
same,"SI, synergy index","[8]; <1 synergism, 1 addition, >1 antagonism",1.00
same,"QS, minimum inhibition concentration of potassium sorbate as single antimicrobial",[9]; pH 5.0,1024
same,"Qlae, minimum inhibition concentration of LAE in the mixture",[9]; pH 5.0,0
same,Qlae/QLAE,[9]; pH 5.0,0
same,"Qs, minimum inhibition concentration of potassium sorbate in the mixture",[9]; pH 5.0,1024.00
same,Qs/QS,[9]; pH 5.0,1.00
same,"SI, synergy index",[9]; pH 5.0,1.00
same,"QS, minimum inhibition concentration of potassium sorbate as single antimicrobial","[9]; pH 7.4, aqueous solutions",1536
same,"Qlae, minimum inhibition concentration of LAE in the mixture","[9]; pH 7.4, aqueous solutions",0
same,Qlae/QLAE,"[9]; pH 7.4, aqueous solutions",0.0
same,"Qs, minimum inhibition concentration of potassium sorbate in the mixture","[9]; pH 7.4, aqueous solutions",1536
same,Qs/QS,"[9]; pH 7.4, aqueous solutions",1.00
same,"SI, synergy index","[9]; pH 7.4, aqueous solutions",1.00
